Measurements as given in patent publication US10040804B2, “Compounds targeting proteins, compositions, methods, and uses thereof” (BioTheryX, Inc., priority 2016, dated 2018).

Assays:
IL-2 = assay: anti-CD3-induced IL-2 secretion in PBMCs; type: cell-based; conditions: Homo sapiens, PBMC; compound concentration 10 μM; anti-CD3 stimulated PBMCs, 24 h; DMSO = 1.0; read-out: Fold Change IL-2
Protocol: FIGS. 4 and 9D are graphs showing anti-CD3-induced IL-2 secretion in PBMCs. 1 ug/mL anti-CD3 (OKT-3) antibody in PBS were coated onto 96-well plates overnight at 4° C. Approximately 550,000 PBMCs were added to each well, followed by addition of DMSO only, Compound 1-8 at 10 μM (FIG. 4) or Compound 9 at 0.1 μM or 1 μM (FIG. 9D), or 10 μM lenalidomide (rev). Induction was measured after 24 h as fold difference from the DMSO stimulated control.
For the IL-2 analysis, 96 well plates were precoated with 1 ug/mL anti-human CD3 antibody (OKT3, eBioscience Inc.). After washing with PBS, compounds were added to the wells (50 μL/well) followed by PBMCs diluted at 3-4 million cells/mL (150 μL/well). Plates were incubated for 24 h and the supernatants collected for Mesoscale IL-2 analysis.
Compound activity was measured as fold difference from the DMSO control. IL-1-beta activity is shown in FIG. 1; IL-6 activity is shown in FIG. 2; TNF-α activity is shown in FIG. 3; and IL-2 activity is shown in FIG. 4.

Molm-13 cells = assay: Molm-13 cell viability (CellTiter-Glo); type: cell-based; conditions: Homo sapiens, MOLM-13, read-out: % Inhibition (MOLM-13 Cell Viability); for cytotoxicity at 10 µM: compound concentration 10 μM
Method in brief: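 Molm-13 (RPMI-1640, 10% FBS) and H1048 (DMEM:F12, 5% FBS with supplements) plated at 20,000 cells/well, treated with compound or 0.1% DMSO for 3 days at 37° C., 5% CO2. Viability read by CellTiter-Glo luminescence after 10 min.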

IL-6 = IL-6 expression in LPS stimulated PBMCs (Meso Scale); type: cell-based, human; conditions: Homo sapiens, PBMC; compound concentration 10 μM; LPS-stimulated PBMCs
Method in brief: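 Thawed human PBMCs at 200,000 cells/well in RPMI-1640/10% FBS were pretreated with compound or DMSO for 1 h, then stimulated with 100 ng/mL LPS for 18–24 h. Supernatant IL-6 was measured by Meso Scale assay and expressed as % of LPS-induced activity.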

IL-1β = IL-1β expression in LPS stimulated PBMCs (Meso Scale); type: cell-based, human; conditions: Homo sapiens, PBMC, compound concentration 10 μM
Method in brief: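 Human PBMCs (200,000 cells/well in RPMI-1640/10% FBS) were pretreated with compound for 1 h, then stimulated with 100 ng/mL LPS for 18-24 h. IL-1β in supernatant was measured by Meso Scale assay. Activity is expressed as percentage of LPS-induced level, with DMSO-treated wells as negative control.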

TNF-α = TNF-α expression in LPS stimulated PBMCs (Meso Scale); type: cell-based, human; conditions: Homo sapiens, PBMC, compound concentration 10 μM
Method in brief: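 Thawed primary human PBMCs, 200,000 cells/well in RPMI-1640/10% FBS, pretreated with compound 1 h, then stimulated with 100 ng/mL LPS for 18-24 h. Supernatant TNF-α measured by Meso Scale assay; activity expressed as percentage of LPS-induced level, DMSO as negative control.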

| Structure (SMILES) | fold induction at 10 µM (IL-2) | cytotoxicity at 10 µM (Molm-13 cells) [%] | inhibition at 10 µM (IL-6) [%] | inhibition at 10 µM (IL-1β) [%] | inhibition at 10 µM (TNF-α) [%] | cytotoxicity at 6 µM (Molm-13 cells; compound concentration 6 μM) [%] |
| --- | --- | --- | --- | --- | --- | --- |
| Cc1scc2c1CN([C@H]1CC(=O)NC1=O)C2=O [Compound 20, (S)-3-(1-Methyl-4-oxo-4H-thieno[3,4-c]pyrrol-5(6H)-yl) pyrrolidine-2,5-dione] | 2.2 | 19 | 19 | 50 | 58 |  |
| O=C1CCC(N2Cc3sccc3C2=O)C(=O)N1 (centres unmarked) [Compound 21, 3-(4-Oxo-4H-thieno[2,3-c]pyrrol-5(6H)-yl)piperidine-2,6-dione] | 2.9 | 16 | 73 | 74 | 74 |  |
| O=C1CCC(N2C(=O)c3scc(C4CCCC4)c3C2=O)C(=O)N1 (centres unmarked) [Compound 22, 3-Cyclopentyl-5-(2,6-dioxopiperidin-3-yl)-4H-thieno[2,3-c]pyrrole-4,6(5H)-dione] | 0.8 | 23 | 16 | 0 | 26 |  |
| O=C1CCC(N2Cc3c(csc3C(F)F)C2=O)C(=O)N1 (centres unmarked) [Compound 23, 3-(1-(Difluoromethyl)-4-oxo-4H-thieno[3,4-c]pyrrol-5(6H)-yl)piperidine-2,6-dione] | 2 | 34 | 45 | 69 | 82 |  |
| O=C1CCC[C@H](N2Cc3c(C4CCCC4)csc3C2=O)C(=O)N1 [Compound 24, (S)-3-(3-Cyclopentyl-6-oxo-4H-thieno[2,3-c]pyrrol-5(6H)-yl)azepane-2,7-dione] | 0.7 | 26 | 6 | 11 | 23 |  |
| Cc1sc(Cl)c2c1CN([C@H]1CCCC(=O)NC1=O)C2=O [Compound 25, (S)-3-(3-Chloro-1-methyl-4-oxo-4H-thieno[3,4-c]pyrrol-5(6H)-yl)azepane-2,7-dione] | 1.3 | 20 | 22 | 45 | 41 |  |
| O=C1CCC(N2C(=O)c3cc(C4CCCC4)sc3C2=O)C(=O)N1 (centres unmarked) [Compound 26, 2-Cyclopentyl-5-(2,6-dioxopiperidin-3-yl)-4H-thieno[2,3-c]pyrrole-4,6(5H)-dione] | 0.9 | 0 | 14 | 2 | 31 |  |
| O=C1CCC(N2C(=O)c3csc(C4CCCC4)c3C2=O)C(=O)N1 (centres unmarked) [Compound 27, 1-Cyclopentyl-5-(2,6-dioxopiperidin-3-yl)-4H-thieno[3,4-c]pyrrole-4,6(5H)-dione] | 0.8 | 0 | 3 | 21 | 22 |  |
| Cc1scc2c1CN([C@H]1CCCCNC1=O)C2=O [Compound 28, (S)-1-Methyl-5-(2-oxoazepan-3-yl)-5,6-dihydro-4H-thieno[3,4-c]pyrrol-4-one] | 0.9 | 0 | 9 | 0 | 0 |  |
| Cc1cnc(Nc2ccc(OCCCNCC(=O)NCc3scc4c3CN([C@H]3CCCC(=O)NC3=O)C4=O)cc2)nc1Nc1cccc(S(=O)(=O)NC(C)(C)C)c1 [Compound 58, (S)-2-((3-(4-((4-((3-(N-(tert-Butyl)sulfamoyl)phenyl)amino)-5-methylpyrimidin-2-yl)amino)phenoxy)propyl)amino)-N-((5-(2,7-dioxoazepan-3-yl)-4-oxo-5,6-dihydro-4H-thieno[3,4-c]pyrrol-1-yl)methyl)acetamide] | 1.9 |  | 53 | 82 | 92 | 50 |
